Laboratory results taken from patent publication US20220235012A1, “ACID ADDITION SALT OF PYRIMETHAMINE” (GLG PHARMA S.A., priority 2018, published 2022).
Counter-ions that a name gives are not always drawn.

Legend:
[1] = Solubility in terms of Ph. Eur. 9.2 (approximate volume of solvent per gram of solute); assay type: physicochemical; conditions: descriptive term
Experimental: The solubility of pyrimethamine salts with different organic and mineral acids was evaluated according to the general recommendations described in Ph. Eur. 9.2 for the pharmaceutical active ingredients. The “solubility” ° according to Ph. Eur. 9.2, is the approximate volume of solvent in millilitres per gram of solute.

[2] = Solubility of pyrimethamine salts, own method at 20° C. and 60° C. in water, 10% Tween 80 and 10% Cremophor RH 40; assay type: physicochemical; conditions: without surfactant and/or emulsifier
[3] = cited from earlier work

CCc1nc(N)nc(N)c1-c1ccc(Cl)cc1 [Methanesulfonate, methanesulfonic acid salt of 5-(4-chlorophenyl)-6-ethyl-2,4-pyrimidinediamine]
Solubility in terms of Ph. Eur. 9.2 [1]: Sparingly soluble
solubility in water at ambient temperature [2]: freely soluble

CCc1nc(N)nc(N)c1-c1ccc(Cl)cc1 [pyrimethamine, 5-(4-chlorophenyl)-6-ethyl-2,4-pyrimidinediamine]
solubility of pyrimethamine in water [3]: 10 µg/mL
